Results: patent US20230390292A1, “REGIMENS FOR THE TREATMENT OF HAIR LOSS DISORDERS WITH DEUTERATED JAK INHIBITORS” (Sun Pharmaceutical Industries, Inc., priority 2020, published 2023)

Key:
Type in all cases: in vivo, human
[1] = system: adult patients with moderate-to-severe alopecia areata; test: Phase 2a trial, efficacy by severity of alopecia tool (SALT)
Description: The efficacy of treatment of hair loss disorders such as alopecia areata can be measured in a variety of ways, some of which are known in the art. For example, the “severity of alopecia tool”, otherwise known as SALT, is a validated assessment scale developed by the National Alopecia Areata Foundation working committee—to evaluate the degree of hair loss. See, e.g., Olsen E A, Hordinsky M K, Price V H, et al. Alopecia areata investigational assessment guidelines—Part II. J Am Acad Dermatol 2004: 51: 440-447 (incorporated herein by reference). The SALT score is calculated for a patient by measuring the percentage of hair loss in each of the 4 areas of the scalp and adding the total to achieve a composite score. Hair regrowth is reflected by a decrease in the SALT score. For example, no hair on the scalp would have a SALT score of 100 while complete hair regrowth would be a SALT score of 0. In certain embodiments, methods of treatment as described herein can provide a SALT score improvement of at least 10 points after treatment (for example, from a SALT score of 100 prior to treatment to a SALT score of 90 after treatment). In further embodiments, methods of treatment as described herein can provide a SALT score improvement of at least 20 points, 30 points, 40 points, 50 points, 60 points, 70 points, 80 points, 90 points, or 100 points. In certain embodiments, methods of treatment as described herein can provide after treatment at least a 20% improvement from baseline in the patient's SALT score, or at least a 30% improvement from baseline in the patient's SALT score, or at least a 40% improvement from baseline in the patient's SALT score, or at least a 50% improvement from baseline in the patient's SALT score, or at least a 60% improvement from baseline in the patient's SALT score, or at least a 70% improvement from baseline in the patient's SALT score, or at least a 75% improvement from baseline in the patient's SALT score or at least a 80% improvement from baseline in the patient's SALT score, or at least a 90% improvement from baseline in the patient's SALT score.
(§1) A Phase 2a trial was conducted to evaluate the safety and efficacy of Compound (I) (CTP-543) in subjects with alopecia, with the primary efficacy analysis at week 24. The Phase 2a trial was a double-blind, randomized, placebo-controlled trial to evaluate the safety and efficacy of Compound (I) in adult patients with moderate-to-severe alopecia areata. Patients were sequentially randomized to receive one of three doses of Compound I as the phosphate salt (e.g., 10.5 mg of Compound (I) phosphate salt is equivalent to 8 mg of Compound (I) free base). The doses of Compound (I) were 4, 8 (i.e., about 10.5 mg of Compound (I) phosphate salt), and 12 mg twice daily, and there was also a patient group receiving placebo. The primary outcome measure utilized the severity of alopecia tool (SALT) after 24 weeks of dosing.
Interim top line analysis for the 4 mg, 8 mg, and 12 mg cohorts is discussed below. The primary endpoint for the study was a 50% relative reduction in SALT between Week 24 and baseline.
58% of patients treated with 12 mg BID (twice daily) and 47% of patients treated with 8 mg BID (twice daily) of CTP-543 achieved a ≥50% reduction in their overall SALT score compared to 8.6% placebo (p<0.001). In addition, 42% of patients treated with 12 mg BID (p<0.001) and 29% of patients treated with 8 mg BID (p<0.05) of CTP-543 achieved a ≥75% reduction in their overall SALT score compared to 7% placebo. Further, 36% of patients treated with 12 mg BID (p<0.001) and 16% of patients treated with 8 mg BID (p<0.05) of CTP-543 achieved a ≥90% reduction in their overall SALT score compared to 2% placebo. 21% of patients treated with 4 mg BID of CTP-543 achieved a ≥50% reduction in their overall SALT score compared to 8.6% placebo (not significant). […] Significant changes in SALT score were observed starting at 12 weeks for the 12 mg and 8 mg cohorts compared to placebo (p<0.05).

[2] = system: adult patients with moderate-to-severe alopecia areata; test: Phase 2a trial, safety (treatment emergent adverse events)
Description: as §1
In the preliminary analysis of the placebo, 4 mg, and 8 mg groups, there were only 3 Grade 3/4 hematology events, distributed equally across the placebo, 4 mg, and 8 mg groups.

[3] = system: subjects with alopecia areata; test: Open-label extension study (OLE), SALT score after dose reduction
Description: In an ongoing open-label extension study, subjects who were previously enrolled in a qualifying clinical study (including the study described in Example 1) and received either a total daily dose of 16 mg of Compound (I) (CTP-543, phosphate salt), a total daily dose of 24 mg of CTP-543, or placebo, and completed through the 24-week treatment period, were eligible to enroll in an open-label extension study (OLE) and continue to receive treatment with CTP-543 phosphate. A total of 152 subjects were enrolled in the OLE. In the OLE, subjects received daily treatment with CTP-543 at a dose of 8 mg BID or 12 mg BID (see FIG. 8). Dose adjustments were allowed at the investigator's discretion. One subject enrolled in the OLE, who received a daily dose of 24 mg QD of CTP-543 for approximately 9 months (i.e., the 24-week study period and the initial 3 months of the OLE), experienced hair growth at that dose (SALT score of zero, i.e., full regrowth of hair prior to dose reduction). The subject then had their dose reduced to a daily dose of 8 mg BID of CTP-543 phosphate. After approximately 7 months in the OLE receiving the lower daily dose of 8 mg BID of CTP-543, the subject continued to substantially maintain hair regrowth, with a SALT score of 7.92.

[2H]C1([2H])C([C@@H](CC#N)n2cc(-c3ncnc4[nH]ccc34)cn2)C([2H])([2H])C([2H])([2H])C1([2H])[2H] [CTP-543, (R)-3-(4-(7H-pyrrolo[2,3-d]pyrimidin-4-yl)-1H-pyrazol-1-yl)-3-(cyclopentyl-2,2,3,3,4,4,5,5-d8)propanenitrile]
separation from placebo ([1]; 4 mg BID, all measures): failed to separate from placebo on all measures | patients achieving a ≥50% reduction in overall SALT score ([1]; 4 mg BID, week 24, vs 8.6% placebo (not significant)): 21% | difference from placebo on SALT measures ([1]; 8 mg BID and 12 mg BID, week 24): significantly different from placebo on all SALT measures | patients achieving a ≥90% reduction in overall SALT score ([1]; 8 mg BID, vs 2% placebo (p<0.05)): 16% | patients achieving a ≥75% reduction in overall SALT score ([1]; 8 mg BID, vs 7% placebo (p<0.05)): 29% | patients achieving a ≥50% reduction in overall SALT score ([1]; 8 mg BID, week 24, vs 8.6% placebo (p<0.001)): 47% | effect of 12 mg BID compared to 8 mg BID ([1]; 12 mg BID vs 8 mg BID): numerically superior and generally produced faster onset and greater effect | patients achieving a ≥90% reduction in overall SALT score ([1]; 12 mg BID, vs 2% placebo (p<0.001)): 36% | patients achieving a ≥75% reduction in overall SALT score ([1]; 12 mg BID, vs 7% placebo (p<0.001)): 42% | patients achieving a ≥50% reduction in overall SALT score ([1]; 12 mg BID, week 24, vs 8.6% placebo (p<0.001)): 58% | start of significant changes in SALT score compared to placebo ([1]; 12 mg and 8 mg cohorts, p<0.05): 12 weeks | difference of 12 mg BID and 8 mg BID dose groups from 4 mg BID dose group ([1]; p<0.05): significantly different | Acne, patients (%) ([2]; 4 mg twice daily): 4 (13.8%) | Blood creatine phosphokinase increased, patients (%) ([2]; 4 mg twice daily): 3 (10.3%) | Cough, patients (%) ([2]; 4 mg twice daily): 4 (13.8%) | Diarrhoea, patients (%) ([2]; 4 mg twice daily): 3 (10.3%) | Folliculitis, patients (%) ([2]; 4 mg twice daily): 3 (10.3%) | Headache, patients (%) ([2]; 4 mg twice daily): 5 (17.2%) | LDL increase, patients (%) ([2]; 4 mg twice daily): 0 | Nasopharyngitis, patients (%) ([2]; 4 mg twice daily): 3 (10.3%) | Nausea, patients (%) ([2]; 4 mg twice daily): 4 (13.8%) | Oroharyngeal pain, patients (%) ([2]; 4 mg twice daily): 3 (10.3%) | Upper respiratory tract infection, patients (%) ([2]; 4 mg twice daily): 2 (6.9%) | Acne, patients (%) ([2]; 8 mg twice daily): 4 (10.5%) | Blood creatine phosphokinase increased, patients (%) ([2]; 8 mg twice daily): 2 (5.3%) | Cough, patients (%) ([2]; 8 mg twice daily): 1 (2.6%) | Diarrhoea, patients (%) ([2]; 8 mg twice daily): 1 (2.6%) | Folliculitis, patients (%) ([2]; 8 mg twice daily): 2 (5.3%) | Headache, patients (%) ([2]; 8 mg twice daily): 10 (26.3%) | LDL increase, patients (%) ([2]; 8 mg twice daily): 4 (10.5%) | Nasopharyngitis, patients (%) ([2]; 8 mg twice daily): 3 (7.9%) | Nausea, patients (%) ([2]; 8 mg twice daily): 4 (10.5%) | Oroharyngeal pain, patients (%) ([2]; 8 mg twice daily): 2 (5.3%) | Upper respiratory tract infection, patients (%) ([2]; 8 mg twice daily): 2 (5.3%) | Acne, patients (%) ([2]; 12 mg twice daily): 6 (16.7%) | Blood creatine phosphokinase increased, patients (%) ([2]; 12 mg twice daily): 1 (2.8%) | Cough, patients (%) ([2]; 12 mg twice daily): 2 (5.6%) | Diarrhoea, patients (%) ([2]; 12 mg twice daily): 0 | Folliculitis, patients (%) ([2]; 12 mg twice daily): 1 (2.8%) | Headache, patients (%) ([2]; 12 mg twice daily): 7 (19.4%) | LDL increase, patients (%) ([2]; 12 mg twice daily): 0 | Nasopharyngitis, patients (%) ([2]; 12 mg twice daily): 9 (25.0%) | Nausea, patients (%) ([2]; 12 mg twice daily): 1 (2.8%) | Oroharyngeal pain, patients (%) ([2]; 12 mg twice daily): 1 (2.8%) | Upper respiratory tract infection, patients (%) ([2]; 12 mg twice daily): 7 (19.4%) | serious adverse events ([2]; 4, 8, 12 mg BID, 24 weeks): no serious adverse events | tolerability of treatment ([2]; 4, 8, 12 mg BID, 24 weeks): generally well-tolerated | Grade 3/4 hematology events ([2]; preliminary analysis, total, distributed equally across placebo, 4 mg and 8 mg groups): 3 | SALT score prior to dose reduction ([3]; one subject, 24 mg QD for approximately 9 months): zero | SALT score after dose reduction ([3]; same subject, approximately 7 months at 8 mg BID after 24 mg QD): 7.92
